# Reference: US4272437A, “Antibacterial agents, and 4-thio azetidinone intermediates” (priority 1979, dated 1981)
# Where two headings read alike, the source gives them in different places.
# Tests used:
# K. pneumoniae A-15130 = assay: MIC, tube dilution, Klebsiella pneumoniae A15130; assay type: cell-based; conditions: Klebsiella pneumoniae, A15130, K. pneumoniae A15130; overnight 37° C.; read-out: Minimum Inhibitory Concentration (M.I.C.)
# Source text: (§1) Representative compounds of the present invention were subjected to in vitro antibiotic screening against a variety of microorganisms.
# Proteus rettgeri A21203 = assay: MIC, tube dilution, Proteus rettgeri A21203; assay type: cell-based; conditions: Providencia rettgeri, A21203, Proteus rettgeri A21203; overnight 37° C.; read-out: Minimum Inhibitory Concentration (M.I.C.)
# Source text: as §1
# Ent. cloacae A-9659 = assay: MIC, tube dilution, Enterobacter cloacae A9659; assay type: cell-based; conditions: Enterobacter cloacae, A9659, Enterobacter cloacae A9659; overnight 37° C.; read-out: Minimum Inhibitory Concentration (M.I.C.)
# Source text: as §1
# Pr. vulgaris A-9716 = assay: MIC, tube dilution, Proteus vulgaris / Proteus mirabilis A9716; assay type: cell-based, Proteus vulgaris (name changed to Proteus mirabilis); conditions: Proteus vulgaris, overnight 37° C.
# Source text: as §1
# [1] = system: Klebsiella species A20468; assay: MIC, tube dilution, Klebsiella species A20468; assay type: cell-based; conditions: Klebsiella species (K. pneumoniae) A20468; overnight 37° C.; read-out: Minimum Inhibitory Concentration (M.I.C.)
# Source text: as §1
# Str. pneumoniae A-9585 = assay: MIC, tube dilution, Streptococcus pneumoniae A9585; assay type: cell-based; conditions: Streptococcus pneumoniae, A9585, Str. pneumoniae A9585; overnight 37° C., Nutrient Broth; read-out: Minimum Inhibitory Concentration (M.I.C.)
# Source text: as §1
# E. coli A-20341-1 = assay: MIC, tube dilution, Escherichia coli A20341-1; assay type: cell-based
# Source text: as §1
# Ent. cloacae A-9656 = assay: MIC, tube dilution, Enterobacter cloacae A9656; assay type: cell-based; conditions: overnight 37° C., read-out: Minimum Inhibitory Concentration (M.I.C.)
# Source text: as §1
# Staph. aureus A-9537 = assay: MIC, tube dilution, Staphylococcus aureus A9537; assay type: cell-based; conditions: Staphylococcus aureus, A9537, Staph. aureus A9537; overnight 37° C., Nutrient Broth; read-out: Minimum Inhibitory Concentration (M.I.C.)
# Source text: as §1
# Str. faecalis A-20688 = assay: MIC, tube dilution, Streptococcus faecalis A20688; assay type: cell-based; conditions: Enterococcus faecalis, A20688, Str. faecalis A20688; overnight 37° C.; read-out: Minimum Inhibitory Concentration (M.I.C.)
# Source text: as §1
# [2] = stability in aqueous solution followed by UV; assay type: physicochemical; parameters: unit not given here; conditions: for ε at λmax 255 in aqueous solution (stability) / ε at λmax 307 in aqueous solution (stability) / ε at λmax 254 in aqueous solution (stability): UV
# Experimental: To a solution of penem 3 (2.4 g, 6.89 mmoles) in tetrahydrofuran-ether-water mixture (1:1:1, 165 ml) was added 30% palladium on diatomaceous earth (4.8 g). The reaction mixture was hydrogenated under 45 p.s.i. at 23° C. for 2.5 h and filtered over celite pad. The filtrate and washings were combined, washed twice with ether, centrifugated and filtered several times to give a clear solution which was lyophilized; 0.622 g, 45%. The crystallization of the compound was induced by the addition of water (0.8 ml); the suspension was centrifuged and the water was removed leaving an orange solid. This solid was washed twice with water and a slightly yellow solid was obtained after drying: […], 19.8%. UV λmax^H.sbsp.2^O : 307 (ε=4318) and 257 (ε=2650). Some crude starting material (1.2 g, 50%) was recovered. The compound (50 mg) can also be purified by column chromatography [Sephadex G10, column size: 1.6×100 cm, flow rate: 10 ml/h, eluent: distilled water, fraction volume: 1.5 ml, detector: refractive index]. UV λmax^H.sbsp.2^O 307 (ε=3597) and 255 (ε=2424).
# The stability of the compound in aqueous solution was checked by:
# A sample of compound 4 was kept at 23° C. for 3 days and the UV was taken: UV λmax^H.sbsp.2^O : 307 (ε=3055) and 255 (ε=2008).
# To a solution of ester 6 (200 mg, 0.5 mmole) in tetrahydrofuran (10 ml) was added ether (10 ml), water (10 ml) and 30% palladium on diatomaceous earth (200 mg). The reaction mixture was hydrogenated in a Parr apparatus under 35 p.s.i. at 25° C. for 2 h 30 min and filtered over a celite pad. The filtrate was washed twice with ether and the aqueous solution was lyophilized, giving a yellow powder which was purified by column chromatography [Sephadex G-10, bed dimensions: 100×1.6 cm, flow rate: 12 ml/h, eluent: distilled water, fraction volume: 1.5 ml detector: refractive index]. The right fractions were combined and lyophilized to give a white powder (10 mg, 8.8%). UV λmax^H.sbsp.2 O 301 (ε=4930), 258 (ε=3290). IR (KBr) cm^-1 :1770 (c=o of β-lactam) and 1580 [drawing 587] The stability of compound 7 in aqueous solution was followed by UV; after 6 h: 301 (4795) and 258 (3105) and after 72 h: 301 (4565) and 258 (3150). […]
# Pr. morganii A-15153 = assay: MIC, tube dilution, Proteus morganii A15153; assay type: cell-based; conditions: Morganella morganii, A15153, Proteus morganii A15153; overnight 37° C.; read-out: Minimum Inhibitory Concentration (M.I.C.)
# Source text: as §1
# Ps. aeruginosa A-21213 = assay: MIC, tube dilution, Pseudomonas aeruginosa A21213; assay type: cell-based; conditions: overnight 37° C., read-out: Minimum Inhibitory Concentration (M.I.C.)
# Source text: as §1
# Str. pyogenes A-9604 = assay: MIC, tube dilution, Streptococcus pyogenes A9604; assay type: cell-based; conditions: Streptococcus pyogenes, A9604, Str. pyogenes A9604; overnight 37° C., Nutrient Broth; read-out: Minimum Inhibitory Concentration (M.I.C.)
# Source text: as §1
# Pr. mirabilis A-9900 = assay: MIC, tube dilution, Proteus mirabilis A9900; assay type: cell-based; conditions: Proteus mirabilis, A9900, Proteus mirabilis A9900; overnight 37° C.; read-out: Minimum Inhibitory Concentration (M.I.C.)
# Source text: as §1
# Ser. marcescens A-20019 = assay: MIC, tube dilution, Serratia marcescens A20019; assay type: cell-based; conditions: Serratia marcescens, A20019, Serratia marcescens A20019; overnight 37° C.; read-out: Minimum Inhibitory Concentration (M.I.C.)
# Source text: as §1
# [3] = system: Staph. aureus (Pen-Res) A-9606; assay: MIC, tube dilution, Staphylococcus aureus A9606 (Pen-Res); assay type: cell-based; conditions: Staphylococcus aureus, overnight 37° C.
# Source text: as §1
# E. coli A-15119 = assay: MIC, tube dilution, Escherichia coli A15119; assay type: cell-based; conditions: Escherichia coli, A15119, E. coli A15119; overnight 37° C.; read-out: Minimum Inhibitory Concentration (M.I.C.)
# Source text: as §1
# [4] = system: Staph. aureus (Meth-Res) A-15097; assay: MIC, tube dilution, Staphylococcus aureus A15097 (Meth-Res); assay type: cell-based; conditions: Staphylococcus aureus, overnight 37° C.
# Source text: as §1
# Ps. aeruginosa A-9843A = assay: MIC, tube dilution, Pseudomonas aeruginosa A9843A; assay type: cell-based; conditions: Pseudomonas aeruginosa, A9843A, read-out: Minimum Inhibitory Concentration (M.I.C.), Pseudomonas aeruginosa A9843A; overnight 37° C.
# Source text: as §1
# [5] = system: Staph. aureus A-9537 and 50% serum; assay: MIC, tube dilution, Staph. aureus A9537 + 50% serum; assay type: cell-based, Staphylococcus aureus; conditions: Staphylococcus aureus, overnight 37° C., read-out: Minimum Inhibitory Concentration (M.I.C.)
# Source text: as §1
# [6] = system: Providencia stuartii A21205; assay: MIC, tube dilution, Providencia stuartii (Pr. rettgeri) A21205; assay type: cell-based; conditions: Providencia stuartii, A21205, read-out: Minimum Inhibitory Concentration (M.I.C.)
# Source text: as §1
# [7] = sample kept at 23° C. for 3 days, UV in H2 O
smiles,measurement,setting,value
"NCC1=C(C(=O)O)N2C(=O)CC2S1 (centres unmarked) [Example 16, 2-Aminomethylpenem-3-carboxylic Acid]",MIC,K. pneumoniae A-15130,8 µg/mL
same,MIC,Proteus rettgeri A21203,1 µg/mL
same,MIC,Ent. cloacae A-9659,8 µg/mL
same,MIC,"Pr. vulgaris A-9716; A9716, Proteus vulgaris / Proteus mirabilis A9716, read-out: Minimum Inhibitory Concentration (M.I.C.)",2 µg/mL
same,MIC,[1],125 µg/mL
same,MIC,Str. pneumoniae A-9585,1 µg/mL
same,MIC,"E. coli A-20341-1; Escherichia coli, A203411, E. coli A20341-1; overnight 37° C.; read-out: Minimum Inhibitory Concentration (M.I.C.)",16 µg/mL
same,MIC,"Ent. cloacae A-9656; Enterobacter cloacae, A9656, Enterobacter cloacae A9656",8 µg/mL
same,MIC,Staph. aureus A-9537,2 µg/mL
same,MIC,Str. faecalis A-20688,> 125 µg/mL
same,ε at λmax 255 in aqueous solution (stability),[2]; 6 h,2773
same,ε at λmax 307 in aqueous solution (stability),[2]; 6 h,3545
same,ε at λmax 255 in aqueous solution (stability),[2]; 21 h,2411
same,ε at λmax 307 in aqueous solution (stability),[2]; 21 h,3467
same,ε at λmax 254 in aqueous solution (stability),[2]; 28 h,2398
same,ε at λmax 307 in aqueous solution (stability),[2]; 28 h,3337
same,ε at λmax 254 in aqueous solution (stability),[2]; 46 h,2398
same,ε at λmax 307 in aqueous solution (stability),[2]; 46 h,3259
same,ε at λmax 307 in aqueous solution (stability),[2]; 70 h,3076
same,ε at λmax 307 in aqueous solution (stability),[2]; 94 h,2842
same,ε at λmax 307 in aqueous solution (stability),[2]; 170 h,1900
same,ε at λmax 255 (stability of stored sample),[2]; [7],2008
same,ε at λmax 307 (stability of stored sample),[2]; [7],3055
same,MIC,Pr. morganii A-15153,1 µg/mL
same,MIC,"Ps. aeruginosa A-21213; Pseudomonas aeruginosa, A21213, Pseudomonas aeruginosa A21213",1 µg/mL
same,MIC,Str. pyogenes A-9604,4 µg/mL
same,MIC,Pr. mirabilis A-9900,2 µg/mL
same,MIC,Ser. marcescens A-20019,8 µg/mL
same,MIC,"[3]; Staph. aureus A9606 (Pen-Res), read-out: Minimum Inhibitory Concentration (M.I.C.)",8 µg/mL
same,MIC,E. coli A-15119,4 µg/mL
same,MIC,"[4]; Staph. aureus A15097 (Meth-Res), read-out: Minimum Inhibitory Concentration (M.I.C.)",63 µg/mL
same,MIC,Ps. aeruginosa A-9843A,1 µg/mL
same,MIC,[5],32 µg/mL
"COCC1=C(C(=O)[O-])N2C(=O)C[C@H]2S1.[Na+] [Preparation 6, Sodium 2-Methoxymethylpenem-3-carboxylate]",MIC,K. pneumoniae A-15130,8 µg/mL
same,MIC,Ent. cloacae A-9659,4 µg/mL
same,MIC,"Pr. vulgaris A-9716; A9716, read-out: Minimum Inhibitory Concentration (M.I.C.), Proteus vulgaris / Proteus mirabilis A9716",2 µg/mL
same,MIC,[1],> 125 µg/mL
same,MIC,Str. pneumoniae A-9585,0.06 µg/mL
same,MIC,"E. coli A-20341-1; Escherichia coli, A203411; E. coli A20341-1; overnight 37° C.; read-out: Minimum Inhibitory Concentration (M.I.C.)",125 µg/mL
same,MIC,Ent. cloacae A-9656; Enterobacter cloacae A9656,8 µg/mL
same,MIC,Staph. aureus A-9537,0.5 µg/mL
same,MIC,Str. faecalis A-20688,32 µg/mL
same,MIC,Pr. morganii A-15153,4 µg/mL
same,MIC,Ps. aeruginosa A-21213; Pseudomonas aeruginosa A21213,> 125 µg/mL
same,MIC,Str. pyogenes A-9604,0.25 µg/mL
same,MIC,Pr. mirabilis A-9900,2 µg/mL
same,MIC,Ser. marcescens A-20019,4 µg/mL
same,MIC,"[3]; read-out: Minimum Inhibitory Concentration (M.I.C.), Staph. aureus A9606 (Pen-Res)",2 µg/mL
same,MIC,E. coli A-15119,2 µg/mL
same,MIC,"[4]; read-out: Minimum Inhibitory Concentration (M.I.C.), Staph. aureus A15097 (Meth-Res)",> 125 µg/mL
same,MIC,Ps. aeruginosa A-9843A,> 125 µg/mL
same,MIC,[5],32 µg/mL
same,MIC,[6],2 µg/mL
